Measured values: the supplement of paper PMC10307832

What was measured:
Experiment in all cases: relative viability (nuclei count vs DMSO), 5 days (fraction); higher = more cells survive
XMD14-99 + OSI-027 = compound: CN1CCN(CC1)C2=CC(=C(C=C2)NC3=NC(=C(S3)C(=O)C4=C(C=CC=C4Cl)Cl)N)OC [XMD14-99] + COc1cccc2cc(-c3nc([C@H]4CC[C@H](C(=O)O)CC4)n4ncnc(N)c34)[nH]c12 [OSI-027] (partner 0.5 µM)
In short: (§1)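 Relative viability was taken as the ratio of nuclei in treated wells to nuclei in vehicle wells. Lung cancer cell lines in 1536-well plates received compounds by pin tool one day after seeding, either one drug alone or a fixed anchor-drug dose plus five library-drug doses (not always all listed) in √10 steps. Nuclei were counted on 4× images after 5 days of treatment, and values are medians of duplicate plates.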

XMD14-99 + Crizotinib = compound: CN1CCN(CC1)C2=CC(=C(C=C2)NC3=NC(=C(S3)C(=O)C4=C(C=CC=C4Cl)Cl)N)OC [XMD14-99] + C[C@@H](Oc1cc(-c2cnn(C3CCNCC3)c2)cnc1N)c1c(Cl)ccc(F)c1Cl [Crizotinib] (partner 1 µM)
In short: as §1

XMD14-99 + Decitabine = compound: CN1CCN(CC1)C2=CC(=C(C=C2)NC3=NC(=C(S3)C(=O)C4=C(C=CC=C4Cl)Cl)N)OC [XMD14-99] + Nc1ncn([C@H]2C[C@H](O)[C@@H](CO)O2)c(=O)n1 [Decitabine] (partner 2 µM)
In short: as §1

AZD1208 + OSI-027 = compound: N[C@@H]1CCCN(c2c(/C=C3\SC(=O)NC3=O)cccc2-c2ccccc2)C1 [AZD1208] + COc1cccc2cc(-c3nc([C@H]4CC[C@H](C(=O)O)CC4)n4ncnc(N)c34)[nH]c12 [OSI-027] (partner 0.5 µM)
In short: as §1

NCI-H838
relative viability (XMD14-99 + OSI-027; first compound 0.08 µM): 0.481 | relative viability (XMD14-99 + OSI-027; first compound 0.8 µM): 0.403 | relative viability (XMD14-99 + OSI-027; first compound 2.53 µM): 0.356 | relative viability (XMD14-99 + OSI-027; first compound 8 µM): 0.298 | relative viability (XMD14-99 + Crizotinib; first compound 0.08 µM): 0.877 | relative viability (XMD14-99 + Crizotinib; first compound 0.8 µM): 0.798 | relative viability (XMD14-99 + Crizotinib; first compound 2.53 µM): 0.82 | relative viability (XMD14-99 + Crizotinib; first compound 8 µM): 0.557 | relative viability (XMD14-99 + Decitabine; first compound 0.08 µM): 0.477 | relative viability (XMD14-99 + Decitabine; first compound 0.8 µM): 0.452 | relative viability (XMD14-99 + Decitabine; first compound 2.53 µM): 0.426 | relative viability (XMD14-99 + Decitabine; first compound 8 µM): 0.436 | relative viability (AZD1208 + OSI-027; first compound 0.08 µM): 0.378 | relative viability (AZD1208 + OSI-027; first compound 0.253 µM): 0.453 | relative viability (AZD1208 + OSI-027; first compound 0.8 µM): 0.38 | relative viability (AZD1208 + OSI-027; first compound 2.53 µM): 0.326 | relative viability (AZD1208 + OSI-027; first compound 8 µM): 0.301

H3255
relative viability (XMD14-99 + OSI-027; first compound 0.08 µM): 0.548 | relative viability (XMD14-99 + OSI-027; first compound 0.8 µM): 0.57 | relative viability (XMD14-99 + OSI-027; first compound 2.53 µM): 0.535 | relative viability (XMD14-99 + OSI-027; first compound 8 µM): 0.487 | relative viability (XMD14-99 + Crizotinib; first compound 0.08 µM): 0.831 | relative viability (XMD14-99 + Crizotinib; first compound 0.8 µM): 0.64 | relative viability (XMD14-99 + Crizotinib; first compound 2.53 µM): 0.757 | relative viability (XMD14-99 + Crizotinib; first compound 8 µM): 0.597 | relative viability (XMD14-99 + Decitabine; first compound 0.08 µM): 0.584 | relative viability (XMD14-99 + Decitabine; first compound 0.8 µM): 0.674 | relative viability (XMD14-99 + Decitabine; first compound 2.53 µM): 0.546 | relative viability (XMD14-99 + Decitabine; first compound 8 µM): 0.513 | relative viability (AZD1208 + OSI-027; first compound 0.08 µM): 0.506 | relative viability (AZD1208 + OSI-027; first compound 0.253 µM): 0.54 | relative viability (AZD1208 + OSI-027; first compound 0.8 µM): 0.429 | relative viability (AZD1208 + OSI-027; first compound 2.53 µM): 0.491 | relative viability (AZD1208 + OSI-027; first compound 8 µM): 0.543

SK-MES-1
relative viability (XMD14-99 + OSI-027; first compound 0.08 µM): 0.589 | relative viability (XMD14-99 + OSI-027; first compound 0.8 µM): 0.506 | relative viability (XMD14-99 + OSI-027; first compound 2.53 µM): 0.54 | relative viability (XMD14-99 + OSI-027; first compound 8 µM): 0.291 | relative viability (XMD14-99 + Crizotinib; first compound 0.08 µM): 0.991 | relative viability (XMD14-99 + Crizotinib; first compound 0.8 µM): 0.946 | relative viability (XMD14-99 + Crizotinib; first compound 2.53 µM): 1.01 | relative viability (XMD14-99 + Crizotinib; first compound 8 µM): 0.639 | relative viability (XMD14-99 + Decitabine; first compound 0.08 µM): 0.421 | relative viability (XMD14-99 + Decitabine; first compound 0.8 µM): 0.389 | relative viability (XMD14-99 + Decitabine; first compound 2.53 µM): 0.451 | relative viability (XMD14-99 + Decitabine; first compound 8 µM): 0.336 | relative viability (AZD1208 + OSI-027; first compound 0.08 µM): 0.541 | relative viability (AZD1208 + OSI-027; first compound 0.253 µM): 0.509 | relative viability (AZD1208 + OSI-027; first compound 0.8 µM): 0.492 | relative viability (AZD1208 + OSI-027; first compound 2.53 µM): 0.541 | relative viability (AZD1208 + OSI-027; first compound 8 µM): 0.461

NCI-H1437
relative viability (XMD14-99 + OSI-027; first compound 0.08 µM): 0.892 | relative viability (XMD14-99 + OSI-027; first compound 0.8 µM): 0.842 | relative viability (XMD14-99 + OSI-027; first compound 2.53 µM): 0.804 | relative viability (XMD14-99 + OSI-027; first compound 8 µM): 0.68 | relative viability (XMD14-99 + Crizotinib; first compound 0.08 µM): 0.843 | relative viability (XMD14-99 + Crizotinib; first compound 0.8 µM): 0.905 | relative viability (XMD14-99 + Crizotinib; first compound 2.53 µM): 0.822 | relative viability (XMD14-99 + Crizotinib; first compound 8 µM): 0.684 | relative viability (XMD14-99 + Decitabine; first compound 0.08 µM): 0.621 | relative viability (XMD14-99 + Decitabine; first compound 0.8 µM): 0.469 | relative viability (XMD14-99 + Decitabine; first compound 2.53 µM): 0.458 | relative viability (XMD14-99 + Decitabine; first compound 8 µM): 0.417 | relative viability (AZD1208 + OSI-027; first compound 0.08 µM): 0.821 | relative viability (AZD1208 + OSI-027; first compound 0.253 µM): 1.07 | relative viability (AZD1208 + OSI-027; first compound 0.8 µM): 0.837 | relative viability (AZD1208 + OSI-027; first compound 2.53 µM): 0.774 | relative viability (AZD1208 + OSI-027; first compound 8 µM): 0.764

LU99A
relative viability (XMD14-99 + OSI-027; first compound 0.08 µM): 0.302 | relative viability (XMD14-99 + OSI-027; first compound 0.8 µM): 0.308 | relative viability (XMD14-99 + OSI-027; first compound 2.53 µM): 0.297 | relative viability (XMD14-99 + OSI-027; first compound 8 µM): 0.25 | relative viability (XMD14-99 + Crizotinib; first compound 0.08 µM): 0.612 | relative viability (XMD14-99 + Crizotinib; first compound 0.8 µM): 0.489 | relative viability (XMD14-99 + Crizotinib; first compound 2.53 µM): 0.542 | relative viability (XMD14-99 + Crizotinib; first compound 8 µM): 0.468 | relative viability (XMD14-99 + Decitabine; first compound 0.08 µM): 0.852 | relative viability (XMD14-99 + Decitabine; first compound 0.8 µM): 0.918 | relative viability (XMD14-99 + Decitabine; first compound 2.53 µM): 0.784 | relative viability (XMD14-99 + Decitabine; first compound 8 µM): 0.669 | relative viability (AZD1208 + OSI-027; first compound 0.08 µM): 0.295 | relative viability (AZD1208 + OSI-027; first compound 0.253 µM): 0.29 | relative viability (AZD1208 + OSI-027; first compound 0.8 µM): 0.291 | relative viability (AZD1208 + OSI-027; first compound 2.53 µM): 0.264 | relative viability (AZD1208 + OSI-027; first compound 8 µM): 0.238

HCC-827
relative viability (XMD14-99 + OSI-027; first compound 0.08 µM): 0.726 | relative viability (XMD14-99 + OSI-027; first compound 0.8 µM): 0.68 | relative viability (XMD14-99 + OSI-027; first compound 2.53 µM): 0.655 | relative viability (XMD14-99 + OSI-027; first compound 8 µM): 0.608 | relative viability (XMD14-99 + Crizotinib; first compound 0.08 µM): 0.857 | relative viability (XMD14-99 + Crizotinib; first compound 0.8 µM): 0.906 | relative viability (XMD14-99 + Crizotinib; first compound 2.53 µM): 0.754 | relative viability (XMD14-99 + Crizotinib; first compound 8 µM): 0.752 | relative viability (XMD14-99 + Decitabine; first compound 0.08 µM): 0.354 | relative viability (XMD14-99 + Decitabine; first compound 0.8 µM): 0.273 | relative viability (XMD14-99 + Decitabine; first compound 2.53 µM): 0.296 | relative viability (XMD14-99 + Decitabine; first compound 8 µM): 0.306 | relative viability (AZD1208 + OSI-027; first compound 0.08 µM): 0.688 | relative viability (AZD1208 + OSI-027; first compound 0.253 µM): 0.751 | relative viability (AZD1208 + OSI-027; first compound 0.8 µM): 0.707 | relative viability (AZD1208 + OSI-027; first compound 2.53 µM): 0.617 | relative viability (AZD1208 + OSI-027; first compound 8 µM): 0.667

LK-2
relative viability (XMD14-99 + OSI-027; first compound 0.08 µM): 0.19 | relative viability (XMD14-99 + OSI-027; first compound 0.8 µM): 0.182 | relative viability (XMD14-99 + OSI-027; first compound 2.53 µM): 0.162 | relative viability (XMD14-99 + OSI-027; first compound 8 µM): 0.179 | relative viability (XMD14-99 + Crizotinib; first compound 0.08 µM): 0.232 | relative viability (XMD14-99 + Crizotinib; first compound 0.8 µM): 0.193 | relative viability (XMD14-99 + Crizotinib; first compound 2.53 µM): 0.2 | relative viability (XMD14-99 + Crizotinib; first compound 8 µM): 0.223 | relative viability (XMD14-99 + Decitabine; first compound 0.08 µM): 0.258 | relative viability (XMD14-99 + Decitabine; first compound 0.8 µM): 0.297 | relative viability (XMD14-99 + Decitabine; first compound 2.53 µM): 0.328 | relative viability (XMD14-99 + Decitabine; first compound 8 µM): 0.21 | relative viability (AZD1208 + OSI-027; first compound 0.08 µM): 0.184 | relative viability (AZD1208 + OSI-027; first compound 0.253 µM): 0.155 | relative viability (AZD1208 + OSI-027; first compound 0.8 µM): 0.157 | relative viability (AZD1208 + OSI-027; first compound 2.53 µM): 0.123 | relative viability (AZD1208 + OSI-027; first compound 8 µM): 0.144

HCC-366
relative viability (XMD14-99 + OSI-027; first compound 0.08 µM): 0.855 | relative viability (XMD14-99 + OSI-027; first compound 0.8 µM): 1.05 | relative viability (XMD14-99 + OSI-027; first compound 2.53 µM): 0.82 | relative viability (XMD14-99 + OSI-027; first compound 8 µM): 0.608 | relative viability (XMD14-99 + Crizotinib; first compound 0.08 µM): 0.494 | relative viability (XMD14-99 + Crizotinib; first compound 0.8 µM): 0.503 | relative viability (XMD14-99 + Crizotinib; first compound 2.53 µM): 0.478 | relative viability (XMD14-99 + Crizotinib; first compound 8 µM): 0.497 | relative viability (XMD14-99 + Decitabine; first compound 0.08 µM): 0.32 | relative viability (XMD14-99 + Decitabine; first compound 0.8 µM): 0.363 | relative viability (XMD14-99 + Decitabine; first compound 2.53 µM): 0.347 | relative viability (XMD14-99 + Decitabine; first compound 8 µM): 0.291 | relative viability (AZD1208 + OSI-027; first compound 0.08 µM): 0.963 | relative viability (AZD1208 + OSI-027; first compound 0.253 µM): 0.96 | relative viability (AZD1208 + OSI-027; first compound 0.8 µM): 0.837 | relative viability (AZD1208 + OSI-027; first compound 2.53 µM): 0.819 | relative viability (AZD1208 + OSI-027; first compound 8 µM): 0.672
